Legend:
[1] = tested on: OT-II CD4+CD25+ Treg cells; assay: Conversion of OT-II Tregs to Th17 phenotype by antibody-treated DCs; format: cell-based, mouse
Experimental: FIG. 16 is a series of plots showing conversion of OT-II CD4 Treg cells to a Th17 phenotype by co-incubation with DCs expressing the Kb-peptide constructs treated with MTabs. OT-II CD4+CD25+ splenic Tregs were isolated by MACS and added 1:1 to DCs pulsed with Ovalbumin and treated with hIgM12, hIgM22, or 28-13-3. After 48 hours, the T cells were harvested, stained with CD4, and internally stained with FoxP3 PE and IL-17 APC. Expression was assayed by flow cytometry, and cells were gated on CD4.
This was measured by loss of FoxP3 expression and gain of IL-17 expression, corresponding to loss of a repressive phenotype and gain of an effector phenotype. Studies were conducted to compare the ability of wild type DCs or B7DC−/− B7DC reconstituted DCs to B7DC−/− transduced with the Kb-peptide constructs to convert Tregs to Th17 polarized T cells. DCs were pulsed with 10 ug/mL ovalbumin and treated with 10 ug/mL of either hIgM12, hIgM22, or 28-13-3, 24 hours prior to addition of T cells. Splenic OT-II Tregs were isolated by MACs and added to DC cultures at a 1:1 ratio. After 48 hours of co-incubation, T cells were harvested, stained with CD4 PerCP, and permeabilized and stained with FoxP3 PE and IL-17 APC. Samples were run by flow cytometry and cells were gated by high CD4 expression. Conversion was measured by loss of FoxP3 expression and gain of IL-17 expression.

mouse DC = assay: Co-immunoprecipitation with class II IA^b from mouse DC; format: cell-based
From the text: In FIG. 5A, the distribution of class II (labeled with APC-conjugated antibody) and CD80/CD86 molecules (labeled with PE-conjugated antibodies) was visualized by FRET following treatment of human monocyte derived DC with B7-DC XAb (open histograms) or with isotype control antibody (filled histograms). For FIG. 5B, mouse bone marrow derived DC were labeled, treated, and analyzed as in FIG. 5A. FIG. 5C indicates the inability of the IA^b specific IgM antibody 25-9-3 (open dark histograms), B7-DC XAb (open light histograms), and isotype control antibody treated samples (filled histograms) to induce FRET (top left and middle panels). Binding of the class II specific IgM antibody to the mouse DC analyzed is shown (top right panel). FIG. 5D indicates the ability of B7-DC-specific IgG antibody (open histograms on left of each panel) or no IgG antibody (open histograms on right of each panel) to inhibit FRET induced by the MTAb B7-DC XAb. Absence of FRET induced by Isotype control antibody is shown in reference (filled histograms). For FIGS. 5E and 5F, immunoprecipitates of membrane proteins from B7-DC XAb or control antibody treated DC were isolated using biotin tagged IA^b-specific KH74 antibody. The precipitates were analyzed by Western blot using mouse-specific TREM-2 and CD40 antibodies as probes. […]

Q: For “B7-DC XAb: human monoclonal IgM from a Waldenstrom's macroglobulinemia patient that binds and cross-links B7-DC on DC”, which “conversion of Tregs to Th17 polarized cells” value ([1]; knockout DCs expressing Kb-12p9A) is on record?
A: responded

Q: And the “conversion of Tregs to Th17 polarized cells” value ([1]; wild type DCs and B7DC reconstituted knockouts, 10 ug/mL)?
A: converted Tregs to Th17 polarized cells

Q: And the “association of TREM-2 with class II IA^b by co-immunoprecipitation” value (mouse DC; lysates 5 minutes after treatment)?
A: co-immunoprecipitation of TREM-2 with the class II molecule IA^b

Q: What about the “recruitment of CD40 to the cap, co-precipitation with class II” value (mouse DC; mouse DC) of the same substance?
A: co-precipitation with class II molecules

From US11274131B2, “IgM-mediated receptor clustering and cell modulation” (MAYO FOUNDATION FOR MEDICAL EDUCATION AND RESEARCH, priority 2007, dated 2022)
